In EP0792271B1, “FURAN DERIVATIVES FOR INHIBITING PNEUMOCYSTIS CARINII PNEUMONIA, GIARDIA LAMBLIA AND CRYPTOSPORIDIUM PARVUM” (priority 1994, dated 1996):
Like-named read-outs stand apart in the source and are kept apart here.

Assays:
Giardia lamblia = test: Inhibition of growth of Giardia lamblia in in vitro culture; type: cell-based
[1] = tested on: oligomer d(GCGCAATTGCGC)2; test: DNA thermal melting (increase in Tm of oligomer); type: binding; conditions: increase in thermal melting of the oligomer d(GCGCAATTGCGC)2; MES buffer pH 6.0
Method: (§1) Thermal melting curves for DNA and its complexes with compounds from Examples 4, 6, and 7-9 are determined as previously described in F.A. Tanious, et al., J.Biomol. Structure & Dynamics 11:1063 (1994) and W.D. Wilson, et al., Biochemistry 32:4098 (1993), by following the adsorption change at 260 nm as a function of temperature. Tm values were determined from first derivative plots. Compounds are compared by the increase in Tm (ΔTm=Tm of complex - Tm of the free nucleic acid) they produce in MES buffer (0.01M 2-(N-morpholino) ethanesulfonic acid, 0.001 M EDTA, 0.1 M NaCl adjusted to pH 6.0) at saturating amounts of compound (a ratio of 0.3 moles of compound to nucleic acid bases) unless otherwise indicated.

[2] = target: topoisomerase II isolated from Giardia lamblia; test: Topoisomerase II inhibition (Giardia lamblia enzyme); type: biochemical; conditions: 50% inhibition of topoisomerase II isolated from Giardia lamblia; read-out: IC50 Topoisomerase Activity II G.l.
Pneumocystis carinii = test: In vivo activity against Pneumocystis carinii (lung cyst counts and toxicity); conditions: for Toxicity: toxicity scale, larger value = more severe, values greater than 2 indicate deaths of some animals
Cryptosporidium parvum = test: Activity against Cryptosporidium parvum in suckling mice (oocyst counts); type: in vivo; conditions: suckling ICR outbred Swiss mice; for Oocysts: mean oocyst count, control 36.71; for % Reduction: reduction of mean oocyst count versus control
poly A poly T = test: DNA thermal melting (increase in Tm of poly A poly T); type: binding; conditions: MES buffer pH 6.0, 0.1 M NaCl, ratio of 0.3 moles of compound to nucleic acid bases
Method: as §1

[3] = target: T1, topoisomerase II isolated from Drosophila melanogaster (Drosophila melanogaster, UniProt P15348); test: Topoisomerase II inhibition (Drosophila melanogaster enzyme); type: biochemical
T1 construct: topoisomerase II isolated from Drosophila melanogaster; from tissue
T1 sequence (P15348 1-1447): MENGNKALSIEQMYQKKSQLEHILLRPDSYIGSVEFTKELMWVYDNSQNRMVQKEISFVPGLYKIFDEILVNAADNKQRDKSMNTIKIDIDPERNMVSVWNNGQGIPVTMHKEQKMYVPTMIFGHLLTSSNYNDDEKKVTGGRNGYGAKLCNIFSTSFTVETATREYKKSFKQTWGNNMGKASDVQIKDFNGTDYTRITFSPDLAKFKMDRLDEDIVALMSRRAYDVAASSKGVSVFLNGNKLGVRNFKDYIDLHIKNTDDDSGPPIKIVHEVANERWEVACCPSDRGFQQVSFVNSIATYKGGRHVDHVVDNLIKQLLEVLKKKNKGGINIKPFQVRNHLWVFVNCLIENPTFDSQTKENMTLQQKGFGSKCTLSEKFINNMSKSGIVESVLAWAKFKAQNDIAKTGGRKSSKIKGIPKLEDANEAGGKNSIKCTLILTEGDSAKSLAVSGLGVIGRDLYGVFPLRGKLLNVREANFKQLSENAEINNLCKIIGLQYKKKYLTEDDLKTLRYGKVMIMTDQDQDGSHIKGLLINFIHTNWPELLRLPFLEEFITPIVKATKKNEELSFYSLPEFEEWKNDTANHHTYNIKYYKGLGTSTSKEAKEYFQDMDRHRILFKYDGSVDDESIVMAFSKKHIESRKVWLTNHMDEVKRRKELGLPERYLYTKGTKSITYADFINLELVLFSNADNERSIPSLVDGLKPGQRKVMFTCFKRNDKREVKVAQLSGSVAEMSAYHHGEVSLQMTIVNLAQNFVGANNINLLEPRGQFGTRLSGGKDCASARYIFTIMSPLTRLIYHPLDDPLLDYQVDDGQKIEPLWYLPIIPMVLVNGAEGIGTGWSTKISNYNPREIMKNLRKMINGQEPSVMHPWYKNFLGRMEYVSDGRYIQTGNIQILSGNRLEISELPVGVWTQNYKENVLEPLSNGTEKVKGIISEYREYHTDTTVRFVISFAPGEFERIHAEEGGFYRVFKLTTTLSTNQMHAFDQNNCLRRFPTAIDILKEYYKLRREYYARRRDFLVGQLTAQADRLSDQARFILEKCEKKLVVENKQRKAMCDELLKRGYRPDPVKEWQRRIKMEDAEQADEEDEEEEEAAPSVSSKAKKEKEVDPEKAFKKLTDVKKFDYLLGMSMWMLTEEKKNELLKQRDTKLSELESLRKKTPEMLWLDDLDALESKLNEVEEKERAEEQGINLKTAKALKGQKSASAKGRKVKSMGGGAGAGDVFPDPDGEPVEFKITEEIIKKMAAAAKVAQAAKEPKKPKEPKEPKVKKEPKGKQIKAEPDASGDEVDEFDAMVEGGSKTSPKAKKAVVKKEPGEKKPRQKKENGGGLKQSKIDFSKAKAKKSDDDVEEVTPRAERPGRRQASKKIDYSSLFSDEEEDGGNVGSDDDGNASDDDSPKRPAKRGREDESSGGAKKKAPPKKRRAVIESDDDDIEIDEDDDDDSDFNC

[4] = target: topoisomerase I isolated from Pneumocystis carinii; test: Topoisomerase I inhibition (Pneumocystis carinii enzyme); type: biochemical; conditions: 50% inhibition of topoisomerase I isolated from Pneumocystis carinii
[5] = Pneumocystis carinii, iv, read-out: cyst/g lung (% of control)
[6] = Giardia duodenalis; read-out: IC50 Giardia lamblia

Compound	ΔTm Oligomer [1]	IC50 [2]	Oocysts (Cryptosporidium parvum)	% Reduction (Cryptosporidium parvum)	ΔTm DNA (poly A poly T)	IC50 [3]	IC50 [4]	IC50 (Giardia lamblia; [6])	also measured
N=C(N)c1ccc(-c2ccc(-c3ccc(C(=N)N)cc3)o2)cc1 [Compound 1, 2,5-bis(4-amidinophenyl)furan]	11.7 °C	500 to 1000 nM	6.6	66%	25 °C	2000 nM	100000 nM	–	IC50 (Giardia lamblia; Giardia duodenalis, read-out: IC50 Giardia lamblia): 200 nM; response vs control in vivo at 0.027 µM (Pneumocystis carinii; [5]): 55.9%; response vs control in vivo at 0.27 µM (Pneumocystis carinii; [5]): 4.8%; response vs control in vivo at 2.7 µM (Pneumocystis carinii; [5]): 8.3%; response vs control in vivo at 13.3 µM (Pneumocystis carinii; [5]): 2.1%; response vs control in vivo at 66.3 µM (Pneumocystis carinii; Pneumocystis carinii, po, read-out: cyst/g lung (% of control)): 28.4%; Toxicity (Pneumocystis carinii; dosage 0.027 µM/kg/day intravenous): 0; Toxicity (Pneumocystis carinii; dosage 0.27 µM/kg/day intravenous): 0; Toxicity (Pneumocystis carinii; dosage 2.7 µM/kg/day intravenous): 0; Toxicity (Pneumocystis carinii; dosage 13.3 µM/kg/day intravenous): 0; Toxicity (Pneumocystis carinii; dosage 66.3 µM/kg/day, oral dosage by gavage): 0
c1cc(-c2ccc(-c3ccc(C4=NCCCN4)cc3)o2)ccc1C1=NCCCN1 [Compound 3, 2,5-di-p[2(3,4,5,6-tetrahydropyrimidyl)phenyl]furan]	13.5 °C	500 to 1000 nM	–	–	> 28 °C	2500 nM	> 100000 nM	60 nM	response vs control in vivo at 10.9 µM (Pneumocystis carinii; [5]): 0.4%; Toxicity (Pneumocystis carinii; dosage 10.9 µM/kg/day intravenous): +2
CC(C)NC(=N)c1ccc(-c2ccc(-c3ccc(C(=N)NC(C)C)cc3)o2)cc1 [Compound 13, 2,5-bis[4-(N-isopropylamidino)phenyl]furan]	–	500 to 1000 nM	2.13	94.2%	23.1 °C	15000 to 30000 nM	–	140 nM	Toxicity (Pneumocystis carinii; dosage 10.8 µM/kg/day intravenous): 0
